Assay results from patent US20250084380A1, “ARTIFICIAL BRAIN TISSUE” (priority 2016, published 2025).

Assays:
microglia [1] = test: Microglia activation with LPS treatment; type: cell-based, rat/mouse; conditions: 100 ng/mL LPS; 3 days
Method: DAPI was used as a nuclear counterstain. Microglia were also assessed for their ability to activate upon or following treatment with lipopolysaccharide (LPS) (FIG. 1, panel G), and further analyzed post-treatment for expression of inducible nitric oxide synthase (iNOS) (FIG. 1, panel H) and interleukin 1-beta (IL1-beta) (FIG. 1, panel I). Microglia activation ability with LPS (lipopolysaccharide) treatment was performed with 100 ng/mL of LPS to activate microglia cells (20,000 cells per well, 96 well plate).

[2] = test system: primary murine striatal neurons, astrocytes, and microglia; test: 3D tri-culture intracerebral hemorrhage model with necrostatin-1 treatment; type: cell-based, mouse; conditions: for total cell number / DNA content (DNA quantification): nec-1 conditions, 24 hour; for ROS / reactive species level vs untreated samples: nec-1 groups, 4 hours post-injury, 250 mol/mL nec-1 for 15 minutes prior to injury
Method: Hemorrhage injuries were performed at the Neuroscience Center at Massachusetts General Hospital. Samples were transported to the Center, incubated for one hour at 37° C., and then injected with 10 μL of mouse blood and incubated for another hour before being returned to the Tufts University Biomedical Engineering Department. Samples were evaluated at 4 and 24 hours post-injury. For necrostatin-1 treatment, samples were incubated with […] necrostatin-1 for 15 minutes prior to performing a hemorrhage injury.
For all studies, groups included: untreated controls, sham, sham plus nec-1 treatment, hemorrhage (ICH) or ICH plus nec-1 treatment samples.
Cell viability was assessed with a Live/Dead assay, which uses a mixture of calcein and propidium iodide stains (1.2 μL of calcein (reconstituted in DMSO) and 10 μL of propidium iodide (“PI”) per 1 mL of final stain solution). Samples were washed with PBS 2-3 times and any remaining PBS was aspirated. Sponges were transferred to a 96 well plate, 100 μL of calcein/PI stain solution was added to each sample, and they were incubated at 37° C., covered in aluminum foil for 30 minutes. The stain solution was then aspirated, samples were washed with PBS 2-3 times, and then imaged using a confocal microscop with lasers of wavelengths of […] (to detect calcein staining) and […] (to detect PI staining).
DNA was quantified using a PicoGreen assay. To prepare samples for DNA quantification, they were first washed once with PBS, followed by addition of 100 μL of 0.05% Triton-X to cover the sponge. Samples were stored at −20° C. until use. For measurements, samples were thawed at room temperature and homogenized with scissors. Supernatant was collected and placed in a tube, on ice. Enough 1×TE Buffer needed for a dilution of 100 μL 1×TE buffer and 200 μL supernatant for each sample was prepared, and 4 mL of 1×TE buffer was prepared for the standards. 20×TE buffer was diluted 1:20 in diH20 to get 1×TE buffer. 1×TE buffer was then mixed with sample supernatants in separate 1.5 mL tubes. 100 μL of each sample was added to a 96-well plate, in triplicate. Standards were prepared by mixing the DNA working solution and the TE buffer to create 400 μL solutions with the following DNA concentrations: 2000 ng/mL, 1000 ng/mL, 500 ng/mL, 200 ng/mL, 100 ng/mL, 50 ng/mL, 20 ng/mL, and 0 ng/mL. Once samples were ready for analysis and the fluorescence plate reader was warmed and ready, PicoGreen stain was added to each sample. PicoGreen stain was prepared by making a 200-fold dilution of the stock PicoGreen stain in 1×TE Buffer for a final volume of 100 μL per sample plus 30%. The PicoGreen solution was protected from light and 100 μL of the diluted PicoGreen solution was added to each sample, then incubated at room temperature for 2-3 minutes. Fluorescence of samples was read using a plate-reader with 485 nm excitation and 538 nm emission. Fluorescence readings were converted into cell counts by using standard calculations to determine DNA content of each sample, which was then divided by 5.5 pg, which is the average mass of DNA in neurons (Moroz and Kohn 2013).
LDH assays were run on all samples and standards in duplicate, using a commercially available kit. An NADH standard was prepared using the stock NADH standard solution and the LDH assay buffer to achieve 50 μL each of the following concentrations: 0, 2.5, 5, 7.5, 10, and 12.5 nmole per 50 μL. 500 μL of LDH assay buffer was added to each sample for every 100 mg of tissue and samples were then homogenized with scissors, on ice, prior to centrifuging for 15 min at 10,000 xg and 4° C. 50 μL of the supernatant was added into wells in a 96 well plate (in duplicate) and LDH buffer was added to a total volume of 50 μL per well. For each reaction (sample and standards), 2 μL of LDH substrate mix was added to 48 μL of LDH assay buffer to create a Master Reaction Mix. 50 µL of reaction mix was added to each well and contents were mixed by pipetting up and down. […]

microglia [3] = test: Suppression of microglia in 2D primary astrocytic cultures; type: cell-based, mice
Text: In addition to primary microglia, an immortalized microglial cell line (N9) was also used. It was noted that this line has a fast proliferation rate and appeared to suppress neuronal cultures, so primary cell lines were maintained as a source of microglia. In general, it is thought that microglia inhibit growth of astrocytic populations. Microglia proliferation is strictly regulated by colony-stimulating factor 1 and its receptor on microglia membranes. Without wishing to be held to a particular theory, it was contemplated that if the receptor for CSF1 growth factor was inhibited, the growth of microglia in astrocytic population would be inhibited. Accordingly, a 2 week experiment was performed in two dimensional (2D) culture conditions to see if microglial growth could be inhibited. For this experiment, the glial media that was supplied with 1 uM supplement of CSF1R inhibitors was used. Media was changed every second day in 96 well plates with 10.000 mice primary astrocytic cultures. […] Number of microglia was determined in cells treated with CSF1R inhibitor or control (FIG. 1, panel N) and further evaluated via WST-1 assay (FIG. 1, panel O).

[4] = test system: hiPSC derived 3D neural culture; test: Local field potential recordings of hiPSC-derived 3D neural culture with activity inhibitors; type: cell-based, human; conditions: for spontaneous and inducible activity (LFP): CNQX 50 μM, AP5 250 μM together

## lipopolysaccharide [LPS]
Microglia [1]
  microglia activation: efficient to activate microglia

## CN1C(=O)C(Cc2c[nH]c3ccccc23)NC1=S (centres unmarked) [necrostatin-1, Necrostatin-1]
[2]; 24 hours post-injury
  reactive species (ROS-RNS assay), differences between groups: No significant differences
[2]; ICH+nec-1
  LDH activity vs the two sham groups: statistically higher levels of LDH activity
[2]; ICH+nec-1 vs ICH, 24 hours
  LDH activity: slightly lower level
[2]; Sham+nec-1 compared to sham alone
  reactive species (ROS-RNS assay): significantly lower level of reactive species
[2]
  total cell number / DNA content (DNA quantification): higher DNA content
  ROS / reactive species level vs untreated samples: statistically significant decrease in the amount of reactive species
[2]; listed as nec-1
  total cell number / DNA content (DNA quantification): significantly more cells were counted in nec-1 conditions
  ROS / reactive species level vs untreated samples: significantly lower ROS levels
[2]; sham+nec-1, 24 hours
  cell count and viability: highest cell count and viability after 24 hours

## O=P(O)(O)C(Cl)(Cl)P(=O)(O)O [clodronic acid]
Microglia [3]
  suitability to suppress microglial growth and activity: found unacceptable

## N[C@H](CCCP(=O)(O)O)C(=O)O [AP-5, (2R)-amino-5-phosphonopentanoate]
[4]
  spontaneous and inducible activity (LFP): partially blocked

## NC1=N[C@H](O)[C@H]2[C@H]3O[C@]4(O)O[C@@H]([C@@H](O)[C@@]2(N1)[C@@H]4O)[C@]3(O)CO [TTX, tetrodotoxin]
[4]
  activity (LFP): blocked

## N#Cc1cc2c(cc1[N+](=O)[O-])=NC(=O)C(=O)N=2 [CNQX, 6-cyano-7-nitroquinoxaline-2,3-dione]
[4]
  spontaneous and inducible activity (LFP): partially blocked
